Reference: patent publication US7960377B2 (priority 2008, dated 2011)
Like-named read-outs stand apart in the source and are kept apart here. Marks after values point to notes of the source that are not given here.

Assays:
Test in all cases: cell-based
human CB2 receptor = human CB2 receptor (Homo sapiens, UniProt P34972); type: cell-based; details: for inverse agonist mark, human CB2 receptor: asterisk at the compound number
rat CB2 receptor = target: T1, rat CB2 receptor (Rattus norvegicus, UniProt Q9QZN9); type: cell-based; details: for inverse agonist mark, rat CB2 receptor: asterisk at the compound number
T1 sequence (Q9QZN9 1-360): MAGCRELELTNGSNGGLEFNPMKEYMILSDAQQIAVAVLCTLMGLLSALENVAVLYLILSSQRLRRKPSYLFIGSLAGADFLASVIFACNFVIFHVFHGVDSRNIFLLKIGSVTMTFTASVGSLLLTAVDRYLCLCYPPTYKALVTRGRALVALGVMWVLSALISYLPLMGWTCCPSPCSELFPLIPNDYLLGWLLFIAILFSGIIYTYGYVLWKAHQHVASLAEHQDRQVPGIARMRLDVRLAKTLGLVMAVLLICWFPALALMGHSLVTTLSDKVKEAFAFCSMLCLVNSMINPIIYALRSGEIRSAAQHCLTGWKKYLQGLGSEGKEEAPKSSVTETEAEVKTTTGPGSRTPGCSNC

human CB1 receptor = human CB1 receptor (Homo sapiens, UniProt P21554)
human CB1 receptor, sequence (P21554 whole entry): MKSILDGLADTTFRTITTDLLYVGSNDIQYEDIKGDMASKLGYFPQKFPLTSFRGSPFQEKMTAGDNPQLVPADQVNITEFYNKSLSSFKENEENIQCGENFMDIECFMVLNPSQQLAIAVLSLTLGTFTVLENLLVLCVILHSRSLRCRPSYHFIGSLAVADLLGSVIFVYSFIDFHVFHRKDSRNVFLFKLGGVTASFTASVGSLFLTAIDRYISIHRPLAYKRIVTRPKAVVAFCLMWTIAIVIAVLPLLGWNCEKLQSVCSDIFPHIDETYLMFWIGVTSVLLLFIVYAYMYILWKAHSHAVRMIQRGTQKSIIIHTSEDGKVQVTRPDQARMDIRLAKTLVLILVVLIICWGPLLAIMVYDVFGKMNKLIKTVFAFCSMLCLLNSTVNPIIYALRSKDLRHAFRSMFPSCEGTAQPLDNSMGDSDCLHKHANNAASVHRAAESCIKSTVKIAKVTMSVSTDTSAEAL

[1] = change in intracellular cAMP, CHO-K1 hCB2 cells, class AR, read-out: EC50 values for human CB2 receptor

human CB2 receptor, sequence (P34972 whole entry): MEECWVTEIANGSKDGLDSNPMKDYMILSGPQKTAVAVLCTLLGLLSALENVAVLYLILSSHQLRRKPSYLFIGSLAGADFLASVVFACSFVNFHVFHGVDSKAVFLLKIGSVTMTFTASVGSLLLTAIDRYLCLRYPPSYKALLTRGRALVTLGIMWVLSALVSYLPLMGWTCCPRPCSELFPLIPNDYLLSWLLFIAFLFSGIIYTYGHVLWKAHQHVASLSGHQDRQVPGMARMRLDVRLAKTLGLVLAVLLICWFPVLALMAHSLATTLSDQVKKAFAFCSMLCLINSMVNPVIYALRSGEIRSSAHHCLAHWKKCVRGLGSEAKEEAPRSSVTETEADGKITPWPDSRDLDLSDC

| Compound | EC50 (human CB2 receptor; [1]) | EC50 (rat CB2 receptor) | EC50 (human CB1 receptor) | EC50 (human CB2 receptor) | inverse agonist mark, rat CB2 receptor (rat CB2 receptor) | inverse agonist mark, human CB2 receptor (human CB2 receptor) | EC50 (rat CB2 receptor; change in intracellular cAMP, CHO-K1 rCB2 cells, class AR, read-out: EC50 values for rat CB2 receptor) |
| --- | --- | --- | --- | --- | --- | --- | --- |
| O=C(c1cnc2c(c1)N(S(=O)(=O)c1ccccc1)CCO2)N1CCOCC1 [Example 4, morpholino(1-(phenyl-sulfonyl)-2,3-dihydro-1H-pyrido[2,3-b][1,4]oxazin-7-yl)methanone] | > 30 µM | > 30 µM | > 30 µM | – | – | – | – |
| CNC(=O)[C@@H](NC(=O)c1cnc2c(c1)N(S(=O)(=O)c1ccccc1)CCO2)C(C)(C)C [Example 6, (S)-N-(3,3-dimethyl-1-(methylamino)-1-oxobutan-2-yl)-1-(phenyl-sulfonyl)-2,3-dihydro-1H-pyrido[2,3-b][1,4]oxazine-7-carboxamide] | – | ≤ 0.03 µM | > 30 µM | > 30 µM | 2, 3, 6*, 7, 8, 10, 11, 12, 15*, 20, 21, 22, 23, 24, 25, 26, 27, 33, 39, | – | – |
| CNC(=O)[C@@H](NC(=O)c1cnc2c(c1)N(S(=O)(=O)c1ccc(F)cc1)CCO2)C(C)(C)C [Example 15, (S)-N-(3,3-dimethyl-1-(methylamino)-1-oxobutan-2-yl)-1-(4-fluorophenyl-sulfonyl)-2,3-dihydro-1H-pyrido [2,3-b][1,4]oxazine-7-carboxamide] | – | ≤ 0.03 µM | > 30 µM | – | 2, 3, 6*, 7, 8, 10, 11, 12, 15*, 20, 21, 22, 23, 24, 25, 26, 27, 33, 39, | 1, 5, 9, 12, 14, 15*, 28, 29, 34, 35, 36, 37, 41, 44, 49, 50, 51, 54, 56, | – |
| CC(C)(C)N(CCCN)C(=O)c1cnc2c(c1)N(S(=O)(=O)c1ccc(C(F)(F)F)cc1)CCO2 [Example 45, N-(3-aminopropyl)-N-tert-butyl-1-(4-(trifluoromethyl)phenylsulf-onyl)-2,3-dihydro-1H-pyrido[2,3-b][1,4]oxazine-7-carboxamide] | > 30 µM | > 30 µM | > 30 µM | – | – | – | – |
| O=C(c1cnc2c(c1)N(S(=O)(=O)c1ccc(C(F)(F)F)cc1)CCO2)N1CCS(=O)(=O)CC1 [Example 52, 1′,1′-dioxide-thiomorpholino(1-(4-(trifluoromethyl)phenylsulf-onyl)-2,3-dihydro-1H-pyrido[2,3-b][1,4]oxazin-7-yl)methanone] | > 30 µM | > 30 µM | > 30 µM | – | – | – | – |
| CC(C)(C)NC(=O)c1cnc2c(c1)N(S(=O)(=O)c1ccc(Cl)c(Cl)c1)CCO2 [Example 55, N-tert-butyl-1-(3,4-dichlorophenylsulfonyl)-2,3-dihydro-1H-pyrido[2,3-b][1,4]oxazine-7-carboxamide] | – | ≤ 0.03 µM | > 30 µM | ≤ 0.03 µM | – | – | – |
| CCC(C)(C)NC(=O)c1cnc2c(c1)N(S(=O)(=O)c1ccc(C(F)(F)F)cc1)CCO2 [Example 66, N-tert-pentyl-1-(4-(trifluoromethyl)phenylsulf-onyl)-2,3-dihydro-1H-pyrido[2,3-b][1,4]oxazine-7-carboxamide] | – | ≤ 0.03 µM | > 30 µM | ≤ 0.03 µM | – | – | – |
| O=C(O)[C@H]1CCCCN1C(=O)c1cnc2c(c1)N(S(=O)(=O)c1ccc(C(F)(F)F)cc1)CCO2 [Example 78, (R)-1-(1-(4-(trifluoro-methyl)phenylsulfonyl)-2,3-dihydro-1H-pyrido-[2,3-b][1,4]oxazine-7-carbonyl)piperidine-2-carboxylic acid] | > 30 µM | > 30 µM | > 30 µM | – | – | – | – |
| CC(C)(C)NC(=O)c1cnc2c(c1)N(S(=O)(=O)c1ccc(Cl)s1)CCO2 [Example 94, N-tert-butyl-1-(5-chlorothiophen-2-ylsulfonyl)-2,3-dihydro-1H-pyrido[2,3-b][1,4]oxazine-7-carboxamide] | > 30 µM | > 30 µM | > 30 µM | – | – | – | – |
| CS(=O)(=O)N1CCN(C(=O)c2cnc3c(c2)N(S(=O)(=O)c2ccc(Cl)c(Cl)c2)CCO3)CC1 [Example 116, (1-(3,4-dichloro-phenylsulfonyl)-2,3-dihydro-1H-pyrido[2,3-b][1,4]oxazin-7-yl)(4-(methylsulfonyl)piperazin-1-yl)methanone] | > 30 µM | > 30 µM | > 30 µM | – | – | – | – |
| CN(C)S(=O)(=O)N1CCN(C(=O)c2cnc3c(c2)N(S(=O)(=O)c2ccc(Cl)c(Cl)c2)CCO3)CC1 [Example 119, 4-(1-(3,4-dichlorophenylsulfonyl)-2,3-dihydro-1H-pyrido [2,3-b][1,4]oxazine-7-carbonyl)-N,N-dimethyl piperazine-1-sulfonamide] | > 30 µM | > 30 µM | > 30 µM | – | – | – | – |
| O=C(N[C@@H]1CCCC[C@H]1O)c1cnc2c(c1)N(S(=O)(=O)c1ccc(Cl)c(Cl)c1)CCO2 [Example 135, 1-(3,4-dichlorophenyl-sulfonyl)-N-((1R,2R)-2-hydroxycyclohexyl)-2,3-dihydro-1H-pyrido[2,3-b][1,4]oxazine-7-carboxamide] | – | ≤ 0.03 µM | > 30 µM | > 30 µM | – | – | – |
| CC(C)(C)c1cc(NC(=O)c2cnc3c(c2)N(S(=O)(=O)N2CCC(C(F)(F)F)CC2)CCO3)on1 [Example 153, N-(3-tert-butylisoxazol-5-yl)-1-(4-(trifluoromethyl)piperidin-1-ylsulfonyl)-2,3-dihydro-1H-pyrido[2,3-b][1,4]oxazine-7-carboxamide] | – | ≤ 0.03 µM | ≤ 0.3 µM | > 30 µM | 146, 148, 149, 150, 151, 152, 153*, 154*, 155, 156, 157, 163, 164, | – | – |
| CC(C)(CO)NC(=O)c1cnc2c(c1)N(S(=O)(=O)N1CCC(c3ccccc3)CC1)CCO2 [Example 160, N-(1-hydroxy-2-methylpropan-2-yl)-1-(4-phenylpiperidin-1-ylsulfonyl)-2,3-dihydro-1H-pyrido[2,3-b][1,4]oxazine-7-carboxamide] | – | > 30 µM | > 30 µM | > 30 µM | – | – | – |
| CC(C)(C)c1cc(NC(=O)c2cnc3c(c2)N(S(=O)(=O)N2CCC(c4ccccc4)CC2)CCO3)no1 [Example 162, N-(5-tert-butylisoxazol-3-yl)-1-(4-phenylpiperidin-1-ylsulfonyl)-2,3-dihydro-1H-pyrido[2,3-b][1,4]oxazine-7-carboxamide] | – | – | > 30 µM | – | 108, 114, 117, 122, 126, 128, 129, 130, 141, 147, 162*, 165*, 179, | 128, 129, 130, 132, 133, 140, 141, 142, 143, 147, 148, 149, 162*, | – |
| CCC(C)(C)NC(=O)c1cnc2c(c1)N(S(=O)(=O)N1CCC(F)CC1)CCO2 [Example 167, 1-(4-fluoropiperidin-1-ylsulfonyl)-N-tert-pentyl-2,3-dihydro-1H-pyrido[2,3-b][1,4]oxazine-7-carboxamide] | – | ≤ 0.03 µM | > 30 µM | ≤ 0.03 µM | – | – | – |
| CCC(C)(C)NC(=O)c1cnc2c(c1)N(S(=O)(=O)N1CCC(N3CCCC3)CC1)CCO2 [Example 177, N-tert-pentyl-1-(4-(pyrrolidin-1-yl)piperidin-1-ylsulfonyl)-2,3-dihydro-1H-pyrido[2,3-b][1,4]oxazine-7-carboxamide] | – | > 30 µM | > 30 µM | > 30 µM | – | – | – |
| CC(C)(CO)NC(=O)c1cnc2c(c1)N(S(=O)(=O)N1CCC(Cl)CC1)CCO2 [Example 186, 1-(4-chloropiperidin-1-ylsulfonyl)-N-(1-hydroxy-2-methylpropan-2-yl)-2,3-dihydro-1H-pyrido[2,3-b][1,4]oxazine-7-carboxamide] | – | ≤ 0.03 µM | > 30 µM | > 30 µM | – | – | – |
| CC(C)(CO)CNC(=O)c1cnc2c(c1)N(S(=O)(=O)N1CCc3ccccc3C1)CCO2 [Example 191, 1-(3,4-dihydroisoquinolin-2(1H)-ylsulfonyl)-N-(3-hydroxy-2,2-dimethylpropyl)-2,3-dihydro-1H pyrido[2,3-b][1,4]oxazine-7-carboxamide] | – | ≤ 0.03 µM | > 30 µM | > 30 µM | – | – | – |
| CN(CC(C)(C)CO)C(=O)c1cnc2c(c1)N(S(=O)(=O)N1CCc3ccccc3C1)CCO2 [Example 192, 1-(3,4-dihydroisoquinolin-2(1H)-ylsulfonyl)-N-(3-hydroxy-2,2-dimethyl-propyl)-N-methyl-2,3-dihydro-1H-pyrido[2,3-b][1,4]oxazine-7-carboxamide] | – | > 30 µM | > 30 µM | > 30 µM | – | – | – |
| CC(C)(C)NC(=O)c1cnc2c(c1)N(S(=O)(=O)N1CC(F)(F)C1)CCO2 [Example 193, N-tert-butyl-1-(3,3-difluoroazetidin-1-ylsulfonyl)-2,3-dihydro-1H-pyrido[2,3-b][1,4]oxazine-7-carboxamide] | – | ≤ 0.03 µM | > 30 µM | > 30 µM | – | – | – |
| CCC(C)(C)NC(=O)c1cnc2c(c1)N(S(=O)(=O)N1CC(F)(F)C1)CCO2 [Example 194, 1-(3,3-difluoroazetidin-1-ylsulfonyl)-N-tert-pentyl-2,3-dihydro-1H-pyrido[2,3-b][1,4]oxazine-7-carboxamide] | – | ≤ 0.03 µM | > 30 µM | > 30 µM | – | – | – |
| CC(C)(CO)CNC(=O)c1cnc2c(c1)N(S(=O)(=O)N1CC(F)(F)C1)CCO2 [Example 196, 1-(3,3-difluoroazetidin-1-ylsulfonyl)-N-(3-hydroxy-2,2-dimethylpropyl)-2,3-dihydro-1H-pyrido[2,3-b][1,4]oxazine-7-carboxamide] | – | ≤ 0.03 µM | – | > 30 µM | – | – | – |
| O=C(O)CC1COCCN1C(=O)c1cnc2c(c1)N(S(=O)(=O)c1ccc(C(F)(F)F)cc1)CCO2 (stereo not drawn) [Example 207] | > 30 µM | – | – | – | – | – | > 30 µM |
| CC(C)(C)c1nnc(-c2cnc3c(c2)N(S(=O)(=O)c2ccc(F)cc2)CCO3)o1 [Example 212, 7-(5-tert-butyl-1,3,4-oxadiazol-2-yl)-1-(4-fluorophenylsulfonyl)-2,3-dihydro-1H-pyrido[2,3-b][1,4]oxazine] | – | ≤ 0.03 µM | – | ≤ 0.03 µM | – | – | – |
